Data reported in ChEMBL document CHEMBL2440042, “Anti-proliferative activity of hydnocarpin, a natural lignan, is associated with the suppression of Wnt/β-catenin signaling pathway in colon cancer cells” (Bioorg Med Chem Lett, 2013).
Active and inactive are the calls of the source. The rule behind the calls is not given here.

Tests used:
SW480 [1] = experiment: Inhibition of Wnt/beta-catenin signaling pathway in human SW480 cells assessed as dvl2 protein expression at 10 uM after 12 hrs by Western blotting analysis relative to vehicle-treated control
SW480 [2] = experiment: Inhibition of Wnt/beta-catenin signaling pathway in human SW480 cells assessed as dvl2 protein expression at 5 uM after 24 hrs by Western blotting analysis relative to vehicle-treated control
SW480 [3] = experiment: Inhibition of Wnt/beta-catenin signaling pathway in human SW480 cells assessed as GSK3-beta protein expression at 10 uM after 24 hrs by Western blotting analysis relative to vehicle-treated control
SW480 [4] = experiment: Inhibition of Wnt/beta-catenin signaling pathway in human SW480 cells assessed as Axin2 protein expression at 20 uM after 24 hrs by Western blotting analysis relative to vehicle-treated control
SW480 [5] = experiment: Growth inhibition in human SW480 cells at 1 to 20 uM after 72 hrs by SRB assay in presence of axin1 siRNA; format: functional, cell-based
SW480 [6] = experiment: Inhibition of Wnt/beta-catenin signaling pathway in human SW480 cells assessed as increase in phosphorylation of beta-catenin at Ser45 after 24 hrs by Western blotting analysis relative to vehicle-treated control; format: cell-based
SW480 [7] = experiment: Inhibition of Wnt/beta-catenin signaling pathway in human SW480 cells assessed as dvl2 protein expression at 20 uM after 24 hrs by Western blotting analysis relative to vehicle-treated control
SW480 [8] = experiment: Inhibition of Wnt/beta-catenin signaling pathway in human SW480 cells assessed as dvl3 protein expression at 5 uM after 12 hrs by Western blotting analysis relative to vehicle-treated control
SW480 [9] = experiment: Inhibition of Wnt/beta-catenin signaling pathway in human SW480 cells assessed as beta-catenin protein expression at 20 uM after 12 hrs by Western blotting analysis relative to vehicle-treated control
SW480 [10] = experiment: Inhibition of Wnt/beta-catenin signaling pathway in human SW480 cells assessed as GSK3-beta protein expression at 5 uM after 24 hrs by Western blotting analysis relative to vehicle-treated control
SW480 [11] = experiment: Inhibition of Wnt/beta-catenin signaling pathway in human SW480 cells assessed as CK1-alpha protein expression at 20 uM after 12 hrs by Western blotting analysis relative to vehicle-treated control
SW480 [12] = experiment: Inhibition of Wnt/beta-catenin signaling pathway in human SW480 cells assessed as GSK3-beta protein expression at 20 uM after 24 hrs by Western blotting analysis relative to vehicle-treated control
SW480 [13] = experiment: Inhibition of Wnt/beta-catenin signaling pathway in human SW480 cells assessed as Axin1 protein expression at 20 uM after 12 hrs by Western blotting analysis relative to vehicle-treated control
SW480 [14] = experiment: Inhibition of Wnt/beta-catenin signaling pathway in human SW480 cells assessed as dvl3 protein expression at 10 uM after 24 hrs by Western blotting analysis relative to vehicle-treated control
SW480 [15] = experiment: Inhibition of Wnt/beta-catenin signaling pathway in human SW480 cells assessed as GSK3-beta protein expression at 10 uM after 12 hrs by Western blotting analysis relative to vehicle-treated control
SW480 [16] = experiment: Inhibition of Wnt/beta-catenin signaling pathway in human SW480 cells assessed as dvl1 protein expression at 20 uM after 24 hrs by Western blotting analysis relative to vehicle-treated control
SW480 [17] = experiment: Effect on total beta-catenin protein level in human SW480 cells at 5 to 20 uM after 12 to 24 hrs by Western blotting analysis relative to vehicle-treated control; format: functional, cell-based
SW480 [18] = experiment: Inhibition of Wnt/beta-catenin signaling pathway in human SW480 cells assessed as beta-catenin protein expression at 20 uM after 24 hrs by Western blotting analysis relative to vehicle-treated control
SW480 [19] = experiment: Inhibition of Wnt/beta-catenin signaling pathway in human SW480 cells assessed as dvl2 protein expression at 5 uM after 12 hrs by Western blotting analysis relative to vehicle-treated control
[20] = biological target: Axin1/beta-catenin (Homo sapiens) (UniProt P35222+O15169); experiment: Increase in axin1-beta-catenin interaction in human SW480 cells at 5 to 10 uM after 24 hrs by immunoprecipitation; format: cell-based
SW480 [21] = experiment: Inhibition of Wnt/beta-catenin signaling pathway in human SW480 cells assessed as Axin2 protein expression at 10 uM after 24 hrs by Immunoblotting analysis relative to vehicle-treated control
SW480 [22] = experiment: Inhibition of Wnt/beta-catenin signaling pathway in human SW480 cells assessed as increase in phosphorylation of beta-catenin at Ser45 at 10 uM after 12 hrs by Western blotting analysis relative to vehicle-treated control
SW480 [23] = experiment: Inhibition of Wnt/beta-catenin signaling pathway in human SW480 cells assessed as dvl2 protein expression at 20 uM after 12 hrs by Western blotting analysis relative to vehicle-treated control
SW480 [24] = experiment: Inhibition of Wnt/beta-catenin signaling pathway in human SW480 cells assessed as Axin2 protein expression at 20 uM after 12 hrs by Western blotting analysis relative to vehicle-treated control
SW480 [25] = experiment: Inhibition of Wnt/beta-catenin signaling pathway in human SW480 cells assessed as dvl1 protein expression at 20 uM after 12 hrs by Western blotting analysis relative to vehicle-treated control
SW480 [26] = experiment: Inhibition of Wnt/beta-catenin signaling pathway in human SW480 cells after 24 hrs by TOPflash luciferase reporter gene assay relative to vehicle-treated control; format: cell-based
SW480 [27] = experiment: Inhibition of Wnt/beta-catenin signaling pathway in human SW480 cells assessed as CK1-alpha protein expression at 5 uM after 24 hrs by Western blotting analysis relative to vehicle-treated control
SW480 [28] = experiment: Inhibition of Wnt/beta-catenin signaling pathway in human SW480 cells assessed as GSK3-beta protein expression at 20 uM after 12 hrs by Western blotting analysis relative to vehicle-treated control
SW480 [29] = experiment: Inhibition of Wnt/beta-catenin signaling pathway in human SW480 cells assessed as Axin1 protein expression at 10 uM after 12 hrs by Western blotting analysis relative to vehicle-treated control
SW480 [30] = experiment: Inhibition of Wnt/beta-catenin signaling pathway in human SW480 cells assessed as CK1-alpha protein expression at 10 uM after 12 hrs by Western blotting analysis relative to vehicle-treated control
SW480 [31] = experiment: Inhibition of Wnt/beta-catenin signaling pathway in human SW480 cells assessed as Axin1 protein expression at 20 uM after 24 hrs by Western blotting analysis relative to vehicle-treated control
SW480 [32] = experiment: Inhibition of Wnt/beta-catenin signaling pathway in human SW480 cells assessed as CK1-alpha protein expression at 20 uM after 24 hrs by Western blotting analysis relative to vehicle-treated control
SW480 [33] = experiment: Inhibition of Wnt/beta-catenin signaling pathway in human SW480 cells assessed as GSK3-beta protein expression at 5 uM after 12 hrs by Western blotting analysis relative to vehicle-treated control
SW480 [34] = experiment: Inhibition of Wnt/beta-catenin signaling pathway in human SW480 cells assessed as increase in phosphorylation of beta-catenin at Ser45 at 5 uM after 12 hrs by Western blotting analysis relative to vehicle-treated control

Activity [20]: Active
Compound: COc1cc([C@H]2Oc3ccc(-c4cc(=O)c5c(O)cc(O)cc5o4)cc3O[C@@H]2CO)ccc1O (relative stereo)
fold change (FC) (SW480 [1]): 1
fold change (FC) (SW480 [2]): 1.2
fold change (FC) (SW480 [3]): 1.2
fold change (FC) (SW480 [4]): 6.7
growth inhibition (GI) (SW480 [5]): inactive
inhibition (SW480 [6]): Dose-dependent effect
fold change (FC) (SW480 [7]): 1.2
fold change (FC) (SW480 [8]): 1
fold change (FC) (SW480 [9]): 0.6
fold change (FC) (SW480 [10]): 1.1
fold change (FC) (SW480 [11]): 1.2
fold change (FC) (SW480 [12]): 1
fold change (FC) (SW480 [13]): 2.7
fold change (FC) (SW480 [14]): 1
fold change (FC) (SW480 [15]): 0.8
fold change (FC) (SW480 [16]): 1.2
Activity (SW480 [17]): inactive
fold change (FC) (SW480 [18]): 0.7
fold change (FC) (SW480 [19]): 1.2
fold change (FC) (SW480 [21]): 1.2
fold change (FC) (SW480 [22]): 3.6
fold change (FC) (SW480 [23]): 0.9
fold change (FC) (SW480 [24]): 6.5
fold change (FC) (SW480 [25]): 1.1
inhibition (SW480 [26]): Dose-dependent effect
fold change (FC) (SW480 [27]): 1.1
fold change (FC) (SW480 [28]): 0.9
fold change (FC) (SW480 [29]): 2.2
fold change (FC) (SW480 [30]): 0.9
fold change (FC) (SW480 [31]): 4.2
fold change (FC) (SW480 [32]): 1.1
fold change (FC) (SW480 [33]): 0.8
fold change (FC) (SW480 [34]): 3
